pIC50: −log10 of the molar value. Converted amounts (≈) assume the structure as drawn.
Experiments:
[1] = target: purified human 20S proteasome (CT-L activity) (Homo sapiens, UniProt P28074); assay: Proteasomal CT-L activity measurement with Suc-LLVY-AMC; assay type: biochemical; conditions: for pIC50: Suc-LLVY-AMC substrate, 37° C., 30 min
Experimental: (§1) Proteasomal activity measurement: The fluorogenic substrates Suc-LLVY-AMC, Z-ARR-AMC, and Z-LLE-AMC were used to measure CT-L, T-L and casp-L proteasome activities, respectively. Assays were carried out in black, clear bottom 96 well plates in a 200 μL reaction volume containing 1 nM of purified human 20S proteasome in 50 mM Tris-HCL pH 7.5 and 0.03% SDS containing 50 IM fluorogenic substrate at 37° C. The rate of cleavage of fluorogenic peptide substrates was determined by monitoring the fluorescence of released aminomethylcoumarin using a SpectraMax M5e multiwall plate reader at an excitation wavelength of 380 nm and emission wavelength of 460 nm. Fluo-rescence was measured every minute over a period of 30 minutes and the maximum increase in fluorescence per minute was used to calculate specific activities of each sample.
Compounds were screened in vitro using purified human 20S proteasome and the fluorogenic peptide substrate, Suc-LLVY-AMC, as the substrate for CT-L activity as described herein.
The mechanism by which quinoline 7 inhibits the proteasome was investigated using Michaelis-Menton analysis to determine of KM and Vmax and then further illustrated using a Lineweaver-Burk double reciprocal plot of the kinetic data. Kinetic analysis of CT-L activity of purified 20S particles indicate that when the substrate (Suc-LLVY-AMC) concentration was increased incrementally and measurements were taken at five different concentrations of compound 7 or vehicle, the Vmax of the CT-L activity decreases and the KM increases, with the increasing concentration of […].

[2] = target: purified human 20S proteasome (casp-L activity) (Homo sapiens, UniProt P28072); assay: Proteasomal casp-L activity measurement with Z-LLE-AMC; assay type: biochemical; conditions: Z-LLE-AMC substrate
Experimental: as §1
Quinoline 7 was subsequently evaluated for its inhibition of the proteasome's tryptic (b2)-like and caspase (b1)-like activity in vitro using purified human 20S proteasome and the following fluorogenic peptide as substrates: Boc-LRR-AMC (substrate for T-L activity) and Z-LLE-AMC (substrate for casp-L activity).

[3] = tested on: HeLa NF-κB-luc cells; assay: NF-κB-luc reporter assay, TNF-α stimulated; assay type: cell-based; conditions: Homo sapiens, 30 min pretreatment, TNF-α 25 ng/mL, 8 h, Steady-Glo luciferase, read-out: IC50, NF-κB mediated gene transcription
Experimental: NF-κB-luc reporter assay: HeLa NF-κB-luc cells (5.0×10^5 cells/mL) were seeded into a 96-well white opaque plate using DMEM medium supplemented with 5% fetal bovine serum, 500 U/mL penicillin, 100 μg/mL streptomycin, 1 mM sodium pyruvate, 0.2 mM L-glutamine, and 100 Ig/mL hygromycin B. After 24 h the cell culture medium was replaced with DMEM medium supplemented with 100 U/mL penicillin and 100 Ig/mL streptomycin. Cell cultures were pretreated with vehicle (1% DMSO), 50 IMpeptide aldehyde MG-132 (positive control) or quinoline (final concentrations were 50, 25, 12.5, 6.25, 3.13 and 1.56 IM) for 30 min at 37° C. in 5% CO2. TNF-α was added to a final concentration of 25 ng/mL and the samples were further incubated for 8 h at 37° C. in 5% CO2. […] The luminescence of each well was measured using a Veritas microplate luminometer. […] The data was analyzed using GraphPad Prism 4.0. The data was normalized to TNF-α activation and the EC50 values were calculated using the equation for the sigmodial curve for variable slope.
In order to evaluate whether the inhibition of proteasome activity translated in cell culture, we evaluated compound 7 for inhibition of NE-KB regulation. […] In order to determine if quinoline 7 affects NE-KB mediated gene transcription, we evaluated quinoline 7 in HeLa NE-KB-luc cells. […]

[4] = Kinetic solubility assay; assay type: physicochemical; conditions: phosphate buffered saline with 1% DMSO, aqueous buffer, kinetic from dmso stock; estimated kinetic solubility, phosphate buffered saline pH 7.4, 1% DMSO, 2 hours at 37° C., absorbance 620 nm
Experimental: Seven three-fold dilutions from 300 μM were prepared in phosphate buffered saline (ph=7.4) and 1% DMSO. Each concentration for each compound was tested three times (n=3). The compounds were incubated for 2 hours at 37° C. and the absorbance at 620 nm was evaluated for each dilution.

[5] = Microsome (S9 fraction) stability assay; assay type: in vitro ADME; conditions: mouse S9 fraction 0.25 mg/mL, 3 μM compound, NADPH, LC-MS/MS

For Cc1cc(C)c2cc(-c3ccccc3)cnc2c1 [Compound 4, 5,7-Dimethyl-3-phenylquinoline], the pIC50 [1] was 4.63.

With Cc1ccc2nc(C)c(-c3ccccc3)cc2c1 [Compound 5, 2,6-Dimethyl-3-phenylquinoline] the pIC50 [1] was 4.72.

With Cc1cc(C)c2cc(-c3ccccc3)c(C)nc2c1 [Compound 6, 2,5,7-trimethyl-3-phenylquinoline] the pIC50 [1] was 4.82.

In the case of Cc1cc(C)c2cc(C3=CCCCC3)c(C)nc2c1 [Compound 7, 3-cyclohexenyl-2,5,7-trimethylquinoline], the pIC50 [1] was 4.84, the “Mechanism of inhibition (Michaelis-Menton / Lineweaver-Burk analysis)” value ([1]; Suc-LLVY-AMC varied, five concentrations of compound, Vmax decreases, KM increases) was “mixed-type inhibition” and the pIC50 [2] was 4.75. The pIC50 [3] was 4.92, the solubility at 2 h [4] was 38.1 µM (≈ 9.58 µg/mL) and the “Compound remaining after 30 min in mouse S9” value (“Compound remaining” for short) [5] was 18%.

CCc1nc2cc(C)cc(C)c2cc1C1=CCCCC1 [Compound 8, 2-Ethyl-3-cyclohexenyl-5,7-dimethylquinoline] showed a pIC50 [1] of 4.70.

Cc1cc(C)c2cc(C3=CCCCC3)cnc2c1 [Compound 9, 3-Cyclohexenyl-5,7-dimethylquinoline] showed a pIC50 [1] of 4.86.

With Cc1cc(C)c2cc(C3CCCCC3)c(C)nc2c1 [Compound 11] the pIC50 [1] was 5.09, the solubility at 2 h [4] was 129 µM (≈ 32.6 µg/mL) and the “Compound remaining” value [5] was 100%.

For Cc1nc2ccc(Br)cc2cc1C1=CCCCC1 [Compound 16, 6-Bromo-3-cyclohexenyl-2-methylquinoline], the pIC50 [1] was 5.00.

Compound Cc1ccc2nc(C)c(C3=CCCCC3)cc2c1 [Compound 19, 3-Cyclohexenyl-2,6-dimethylquinoline] has a pIC50 [1] of 5.07.

For CCCCc1ccc2nc(C)c(C3=CCCCC3)cc2c1 [Compound 20, 6-Butyl-3-cyclohexenyl-2-methylquinoline], the pIC50 [1] was 5.12, the solubility at 2 h [4] was 14.5 µM (≈ 4.05 µg/mL) and the “Compound remaining” value [5] was 12%.

CN(C)c1ccc2ncc(C3=CCCCC3)cc2c1 [Compound 21, 3-Cyclohexenyl-6-(N,N-dimethylamino)quinoline] showed a pIC50 [1] of 5.20.

For Cc1nc2ccc(N(C)C)cc2cc1C1=CCCCC1 [Compound 22, 3-Cyclohexenyl-2-methyl-6-(N,N-dimethylamino) quinoline], the pIC50 [1] was 5.21.

For CCc1nc2ccc(N(C)C)cc2cc1C1=CCCCC1 [Compound 23, 3-Cyclohexenyl-2-ethyl-6(N,N-dimethylamino)quinoline], the pIC50 [1] was 5.25, the solubility at 2 h [4] was 27.4 µM (≈ 7.68 µg/mL) and the “Compound remaining” value [5] was 5%.

With Cc1nc2ccc(N3CCCCC3)cc2cc1C1=CCCCC1 [Compound 25, 3-Cyclohexenyl-2-methyl-6-piperidinylquinoline] the pIC50 [1] was 5.27.

With COc1cc2nc(C)c(C3=CCCCC3)cc2c(OC)c1OC [Compound 27, 3-Cyclohexenyl-5,6,7-trimethoxy-2-methylquinoline] the pIC50 [1] was 4.81.

With CN(C)c1ccc2ncc(C3CCCCC3)cc2c1 [Compound 28, 3-Cyclohexyl-6-(N,N-dimethylamino)quinoline] the pIC50 [1] was 5.26.

For Cc1nc2ccc(N(C)C)cc2cc1C1CCCCC1 [Compound 29, 3-Cyclohexyl-2-methyl-6-(N,N-dimethylamino) quinoline], the pIC50 [1] was 5.17, the solubility at 2 h [4] was 138 µM (≈ 37.1 µg/mL) and the “Compound remaining” value [5] was 4%.

With Cc1nc2ccc(C(C)C)cc2cc1C1=CCCCC1 [Compound 30, 3-Cyclohexenyl-6-isopropyl-2-methylquinoline] the pIC50 [1] was 5.11, the solubility at 2 h [4] was 11.7 µM (≈ 3.11 µg/mL) and the “Compound remaining” value [5] was 6%.

Compound CCc1cc2cc(N(C)C)ccc2nc1CC [Compound 33, 2,3-Diethyl-N,N-dimethylquinoline] has a pIC50 [1] of 4.73.

With Cc1nc2ccc(N(C)C)cc2cc1-c1ccccc1 [Compound 34, 2-methyl-3-phenyl-6-(N,N-dimethylamino) quinoline] the pIC50 [1] was 5.00, the solubility at 2 h [4] was 121 µM (≈ 31.9 µg/mL) and the “Compound remaining” value [5] was greater than 100%.

For CCCCc1ccc2nc(C)c(-c3ccccc3)cc2c1 [Compound 36, 6-Butyl-2-methyl-3-phenylquinoline], the pIC50 [1] was 4.67.

— patent US12084421B2, “Quinoline-based proteasome inhibitors and uses thereof” (Board of Trustees of Michigan State University, priority 2017, dated 2024)
